Measurements as given in patent US20130323283A1, “COMPOSITIONS AND METHODS FOR TREATING FOXP3+ TREG RELATED DISEASES” (THE CHILDREN'S HOSPITAL OF PHILADELPHIA, priority 2010, published 2013).

Columns and labels:
[1] = test system: Tregs; assay: in vitro murine Treg suppression assay (CFSE-labeled Teff proliferation); format: cell-based; details: for % proliferating cells: 5 μM, 72 hours
Description: Med. (2007) 13:1299-307, the contents of which are incorporated by their entireties. In these assays, effector T cells (Teffs) were labeled with carboxyfluorescein diacetate succinimidyl ester (CFSE), and stimulated by CD3 mAb plus irradiated antigen presenting cells (APCs). […] The percentage of proliferating CFSE-labeled Teffs in each mixture was assessed by flow cytometry after 72 hours as shown in Table 1.

[2] = test system: TC1 lung cancer cells; assay: TC1 lung cancer tumor growth in WT B6 mice; format: in vivo
Description: In the second experiment, p300 inhibition was achieved by using a p300 inhibitor. TC1 lung cancer cells were injected in the flanks of WT B6 mice. […] Tumor volume was monitored in the mice on days 6, 10, 12, 15 and 19 post-tumor injection (FIG. 5B). […] DMSO- and C646-treated mice having tumors were obtained as described in Example 9. […] The growth of tumors in the mice was monitored by tumor volume and tumor weight (FIG. 6B).

[3] = test system: Tregs and Teff cells; assay: Treg suppression assays with cells purified from treated mice; format: in vivo; details: Treg:Teff 2:1 to 0:1
Source text: (§1) Treg and Teff cells were purified using magnetic beads from DMSO- or p300i-treated mice.

[4] = test system: CFSE-labeled T cells; assay: second parent-to-F1 assay (B6 T cells into B6D2F1 mice); format: in vivo; details: 0.9 mg/kg/d for 3 days by Alzet pumps
Source text: The percentages of CFSE-labeled CD4 proliferating cells from DSMO- and C646-treated mice were 94.5% and 95.0%, respectively. The percentages of CFSE-labeled CD8 proliferating or dividing cells from DSMO- and C646-treated mice were 78.5% and 81.6%, respectively. Donor CD4 and CD8 cells (H-2d negative) from both groups had similar alloantigen-induced activation and proliferation (p>0.05).

[5] = test system: Treg and Teff cells; assay: gene expression by Treg and Teff cells from treated mice (qPCR); format: in vivo; details: cells from mice given 0.9 mg/kg/day for 7 days
Description: as §1
Gene expression by Treg and Teff cells from DSMO- or C646-treated mice (four mice/group) was analyzed by qPCR.

[6] = test system: Teffs and Tregs; assay: CD4+ Foxp3+ proportion and MFI in Teffs and Tregs by flow cytometry; format: cell-based; details: 6 hours
Description: Teffs and Tregs were isolated, and treated with 5, 10, or 20 μM p300i or DMSO for 6 hours. Flow cytometry was used to determine the CD4+ Foxp3+ proportion in Teffs or Tregs (Table 2) and the mean fluorescent intensity (MFI) of CD4+ Foxp3+ cells in Teffs or Tregs (Table 3) before or after being treated with p300i or DMSO.

[7] = test system: Treg and Teff cells; assay: Treg and Teff gene expression in vitro by qPCR; format: cell-based; details: 5 μM, 24 hours, CD3/CD28 mAbs plus IL-2
Description: Gene expression Foxp3, CTLA-4, GITR and TGF-β in the activated Treg and Teff cells was determined by qPCR (mean±SD, n=3/grp) and normalized to 18S.

[8] = test system: CFSE-labeled CD4 and CD8 cells; assay: first parent-to-F1 assay (C57BL/6->DBA/B6), alloantigen-induced T cell proliferation in vivo; design: species or system mice; details: 0.8 mg/kg/d continuous via Alzet pump; 3 day assay
Source text: In the first parent-to-F1 assay (C57BL/6->DBA/B6) (Tao et al., J. Immunol. (2005) 175:5774-82; Tao et al., J. Immunol. (2008) 180:6649-55; the contents of both of which are incorporated herein in their entireties), activation and proliferation of adoptively transferred CFSE-labeled CD4 and CD8 cells was monitored by flow cytometry in a 3 day assay. […] The percentages of CFSE-labeled CD4 proliferating or dividing cells from DSMO- and C646-treated mice were 65% and 73%, respectively. The percentages of CFSE-labeled CD8 proliferating or dividing cells from DSMO- and C646-treated mice were 93% and 95%, respectively.

[9] = test system: TC1 lung cancer cells; assay: TC1 lung cancer tumor growth in immunodeficient RAG-/- mice; format: in vivo
Description: TC1 lung cancer cells were injected in the flanks of RAG−/− mice. […] Tumors were harvested from the mice 17 days post-tumor injection. Tumor volume was monitored on days 0, 5, 10, 13 and 17 post-tumor injection. […] Tumors were exposed to C646 in RAG−/− mice. […] No effects on acetylation of certain p300-independent targets in the tumor extracts was observed (e.g. acetylation of alpha-tubulin was unimpaired).

[10] = test system: B6 mice; assay: T cell proportions in lymph nodes and spleen of treated mice; format: in vivo; details: for CD4 proportion / CD8 proportion / CD62L CD44 proportion / Foxp3+ CD4 proportion: 0.9 mg/kg/day via Alzet pump for 7 days
Description: as §1
The proportions of CD4, CD8, Foxp3+ CD4, or CD62L CD44 (markers of memory vs. naive T cells) cells in lymph nodes (LN) and spleen (SP) of DMSO- and C646-treated mice were determined as shown in Table 4.

[11] = test system: cardiac allografts; assay: cardiac allograft model (BALB/c hearts into B6 RAG-/- recipients with adoptive transfer); format: in vivo, mice
Source text: The effects of several HAT inhibitors (HATi) in a cardiac allograph model were studied in three experiments. This model involved vascularized cardiac allografts from BALB/c donors transplanted into immunodeficient C57BL/6 RAG−/− (B6 RAG−/−) recipients. The recipients were adoptively transferred with 1×10^6 purified C57BL/6 Teff cells (CD4+CD25−) alone or in combination with 0.5×10^6 purified Treg cells (CD4+CD25+). The cardiac allograft survival rates of the allograft recipients were monitored over a period of 120 days post-transplant.
In the first experiment, the allograft recipients were adoptively transferred with 1×10^6 Teff cells and 0.5×10^6 purified Tregs (CD4+CD25+), and treated with DMSO (control) or a HAT inhibitor via Alzet pump. Four HAT inhibitors were tested. […] One was a PCAF/GCN5 inhibitor, Lys-20-CoA-Tat. […] Rejection was defined as cessation of heartbeat.
The p300i was delivered to the allograft recipients at 0.9 mg/kg/d for 14 d using Alzet pumps.
In the third experiment, B6/RAG−/− mice (n=4/grp) were engrafted with fully MHC-mismatched BALB/c cardiac grafts and adoptively transferred with WT B6 Teff cells (1×10^6) alone or plus Tregs (0.5×10^6). […] Use of p300−/− Tregs was also unable to suppress Teff cells and prolong allograft survival in this adoptive transfer model.

[12] = compared with DMSO-treated mice, p<0.005
[13] = qPCR, tumors from treated mice vs DMSO

graft function (isografts) ([11]; second experiment: WT B6 mice with normal B6 hearts): does not directly affect graft function
SMILES: CC1=NN(c2ccc(C(=O)O)cc2)C(=O)/C1=C\c1ccc(-c2cc(C)c(C)cc2[N+](=O)[O-])o1 [C646]
suppressive actions of Tregs ([1]; HATi 5 μM): largely abrogated the suppressive actions of Tregs | % proliferating cells ([1]; Treg:Teff 0:1): 88% | % proliferating cells ([1]; Treg:Teff 1:1): 66% | % proliferating cells ([1]; Treg:Teff 1:2): 70% | % proliferating cells ([1]; Treg:Teff 1:4): 78% | % proliferating cells ([1]; Treg:Teff 1:8): 85% | tumor growth (tumor volume) ([2]; 0.9 mg/kg/day for about 14 days via Alzet pumps from day 6, days 6-19): suppressed tumor growth | tumor growth by volume [2, 12]: significantly reduced | tumor growth by weight [2, 12]: significantly reduced | intratumoral CD4 mRNA [2, 13]: significantly increased | intratumoral CD8 mRNA [2, 13]: comparable | intratumoral Foxp3 mRNA [2, 13]: significantly reduced | intratumoral granzyme B mRNA [2, 13]: significantly increased | IFN-γ production by purified CD8 (ELISPOT) ([2]; tumor-bearing treated mice): increased | ability of Tregs to suppress proliferation of Teff cells from untreated mice ([3]; Tregs from C646-treated mice, p<0.05): decreased | response of Teff cells from treated mice to suppression by control normal Tregs ([3]; Tregs from untreated mice): responded normally | percentage of CFSE-labeled CD4 proliferating cells [4]: 95.0% | percentage of CFSE-labeled CD8 proliferating or dividing cells [4]: 81.6% | expression of CTLA4 by Treg cells ([5]; p<0.01): significantly decreased | expression of GITR by Treg cells ([5]; p<0.01): significantly decreased | expression of IL-10 by Treg cells ([5]; p<0.01): significantly decreased | expression of TGF-β by Treg cells ([5]; p<0.01): significantly decreased | expression of CTLA4, GITR, IL-10 and TGF-β by Teff cells ([5]; p>0.05): unchanged | mean fluorescent intensity (MFI) of CD4+ Foxp3+ cells ([6]; Teff, 5 μM): 121 | mean fluorescent intensity (MFI) of CD4+ Foxp3+ cells ([6]; Teff, 10 μM): 108 | mean fluorescent intensity (MFI) of CD4+ Foxp3+ cells ([6]; Teff, 20 μM): 91 | CD4+ Foxp3+ proportion ([6]; Teffs, 5 μM): 2 | CD4+ Foxp3+ proportion ([6]; Teffs, 10 μM): 2 | CD4+ Foxp3+ proportion ([6]; Teffs, 20 μM): 1 | mean fluorescent intensity (MFI) of CD4+ Foxp3+ cells ([6]; Treg, 5 μM): 280 | mean fluorescent intensity (MFI) of CD4+ Foxp3+ cells ([6]; Treg, 10 μM): 253 | mean fluorescent intensity (MFI) of CD4+ Foxp3+ cells ([6]; Treg, 20 μM): 138 | CD4+ Foxp3+ proportion ([6]; Tregs, 5 μM): 71 | CD4+ Foxp3+ proportion ([6]; Tregs, 10 μM): 68 | CD4+ Foxp3+ proportion ([6]; Tregs, 20 μM): 49 | Treg expression of GITR gene [7]: downregulated | Treg expression of CTLA-4 gene ([7]; statistical significance): downregulated | Treg expression of Foxp3 gene ([7]; statistical significance): downregulated | Treg expression of TGF-β gene ([7]; statistical significance): downregulated | alloantigen-induced T cell activation or proliferation (CFSE dilution) or production of cytokines such as IL-2 and IFN-γ [8]: did not impair | percentage of CFSE-labeled CD4 proliferating or dividing cells [8]: 73% | percentage of CFSE-labeled CD8 proliferating or dividing cells [8]: 95% | tumor growth (tumor volume) ([9]; Alzet pumps from day 5, up to day 17): did not impair tumor growth | acetylation of histone 3 in tumor extracts ([9]; compared to DMSO-treated mice): Decreased acetylation of histone 3 | acetylation of alpha-tubulin in tumor extracts ([9]; p300-independent target): unimpaired | effect on the proportions of the tested cells (CD4, CD8, Foxp3+ CD4, CD62L CD44) ([10]; LN and SP, compared to DMSO-treated mice, 0.9 mg/kg/day, 7 days): negligible effect | CD4 proportion ([10]; LN): 35 | CD8 proportion ([10]; LN): 34 | CD62L CD44 proportion ([10]; LN): 6 | Foxp3+ CD4 proportion ([10]; LN): 8 | CD4 proportion ([10]; SP): 18 | CD8 proportion ([10]; SP): 12 | CD62L CD44 proportion ([10]; SP): 12 | Foxp3+ CD4 proportion ([10]; SP): 13 | cardiac allograft rejection (cessation of heartbeat) ([11]; first experiment: 1×10^6 Teff plus 0.5×10^6 Tregs, HAT inhibitor via Alzet pump, DMSO gave long-term survival): restored rejection | Teff cell responses in vivo (allograft rejection) ([11]; second experiment: Teff cells alone plus p300i 0.9 mg/kg/d for 14 d, Alzet pumps): does not suppress Teff cell responses in vivo | T cell-dependent graft rejection ([11]; third experiment: Teff plus Tregs, Alzet pumps for 14 days): restored T cell-dependent graft rejection
